# Experimental data taken from the NIST ThermoML archive (doi:10.1016/j.tca.2014.05.033).
# Several values for one entry are separate records, joined by “and”; a condition that tells them apart may be missing. Equal values may be shown once. Numbers after ± are expanded uncertainties.
# Assays:
# [1] = molar enthalpy of vaporization or sublimation; details: 298.15 K, DSC
# [2] = mn = molality of the nth substance listed, in mol/kg; details: 298.15 K, 101 kPa, Liquid, Vibrating tube method
# [3] = refractive index (Na D-line) (dimensionless); mn = molality of the nth substance listed, in mol/kg; details: 298.15 K, 101 kPa, Liquid, Standard Abbe refractometry
# [4] = Liquid, Transpiration method
compound,measurement,setting,value
"c1ccc(-c2c(-c3ccccc3)c(-c3ccccc3)c3ccccc3c2-c2ccccc2)cc1 [1,2,3,4-tetraphenylnaphthalene]",molar enthalpy,[1]; Crystal,39.4 ± 1.48 kcal/mol
"c1ccc(-c2c(-c3ccccc3)c(-c3ccccc3)c3ccccc3c2-c2ccccc2)cc1 [1,2,3,4-tetraphenylnaphthalene] + c1ccccc1",mass density,[2]; m1 = 8e-05,873.38 ± 1.3 kg/m3
same,mass density,[2]; m1 = 0.00011,873.424 ± 1.2 kg/m3
same,mass density,[2]; m1 = 0.00017,873.488 ± 1.2 kg/m3 and 873.494 ± 1.2 kg/m3
same,mass density,[2]; m1 = 0.00022,873.551 ± 1.3 kg/m3
same,refractive index,[3]; m1 = 0.0008,1.49737 ± 0.00031
same,refractive index,[3]; m1 = 0.0011,1.4974 ± 0.00031
same,refractive index,[3]; m1 = 0.0017,1.49744 ± 0.00031 and 1.49745 ± 0.00031
same,refractive index,[3]; m1 = 0.0022,1.49748 ± 0.00031
"c1ccc(-c2cccc(-c3ccccc3)c2-c2ccccc2)cc1 [1,2,3-triphenylbenzene]",molar enthalpy,[1]; Crystal,33.1 ± 1 kcal/mol
"c1ccc(-c2cccc(-c3ccccc3)c2-c2ccccc2)cc1 [1,2,3-triphenylbenzene] + c1ccccc1",mass density,[2]; m1 = 0.00038,873.87 ± 0.78 kg/m3
same,mass density,[2]; m1 = 0.00061,874.054 ± 0.83 kg/m3
same,mass density,[2]; m1 = 0.0007,874.135 ± 0.78 kg/m3
same,mass density,[2]; m1 = 0.0008,874.201 ± 0.67 kg/m3
same,refractive index,[3]; m1 = 0.00038,1.49797 ± 0.00031
same,refractive index,[3]; m1 = 0.00061,1.49809 ± 0.00031
same,refractive index,[3]; m1 = 0.0007,1.49814 ± 0.00031
same,refractive index,[3]; m1 = 0.0008,1.49819 ± 0.00031
"C(#Cc1ccccc1)c1ccccc1 [1,2-diphenylethyne]",molar enthalpy,[1]; Crystal,22 ± 1.08 kcal/mol
"C(#Cc1ccccc1)c1ccccc1 [1,2-diphenylethyne] + c1ccccc1",mass density,[2]; m1 = 0.00019,873.334 ± 0.34 kg/m3
same,mass density,[2]; m1 = 0.00036,873.403 ± 0.45 kg/m3
same,mass density,[2]; m1 = 0.00042,873.437 ± 0.58 kg/m3
same,mass density,[2]; m1 = 0.00079,873.534 ± 0.28 kg/m3
same,refractive index,[3]; m1 = 0.00019,1.49738 ± 0.00031
same,refractive index,[3]; m1 = 0.00036,1.49743 ± 0.00031
same,refractive index,[3]; m1 = 0.00042,1.49747 ± 0.00031
same,refractive index,[3]; m1 = 0.00079,1.49756 ± 0.00031
c1ccc(-c2cccc3ccccc23)cc1 [1-phenylnaphthalene],vapor or sublimation pressure,[4]; 318.5 K,0.00026 ± 2e-05 kPa
same,vapor or sublimation pressure,[4]; 323.5 K,0.00038 ± 2e-05 kPa
same,vapor or sublimation pressure,[4]; 328.3 K,0.00062 ± 3e-05 kPa
same,vapor or sublimation pressure,[4]; 328.4 K,0.0006 ± 3e-05 kPa
same,vapor or sublimation pressure,[4]; 333.4 K,0.00092 ± 5e-05 kPa
same,vapor or sublimation pressure,[4]; 338 K,0.00136 ± 7e-05 kPa
same,vapor or sublimation pressure,[4]; 343.6 K,0.00209 ± 0.00011 kPa and 0.0021 ± 0.00011 kPa
same,vapor or sublimation pressure,[4]; 351 K,0.00376 ± 0.0002 kPa
same,vapor or sublimation pressure,[4]; 353.1 K,0.00462 ± 0.00024 kPa
same,vapor or sublimation pressure,[4]; 358.3 K,0.00644 ± 0.00034 kPa
same,vapor or sublimation pressure,[4]; 358.5 K,0.00687 ± 0.00036 kPa
same,vapor or sublimation pressure,[4]; 363 K,0.00953 ± 0.0005 kPa
same,vapor or sublimation pressure,[4]; 368.3 K,0.01352 ± 0.0007 kPa
same,vapor or sublimation pressure,[4]; 371 K,0.01665 ± 0.00087 kPa
same,molar enthalpy,[1]; Liquid,19.8 ± 0.621 kcal/mol
"c1ccc(-c2c3ccccc3c(-c3ccccc3)c3c(-c4ccccc4)c4ccccc4c(-c4ccccc4)c23)cc1 [5,6,11,12-tetraphenylnaphthacene]",molar enthalpy,[1]; Crystal,51 ± 1.31 kcal/mol
"c1ccc(-c2c3ccccc3c(-c3ccccc3)c3ccccc23)cc1 [9,10-diphenylanthracene]",molar enthalpy,[1]; Crystal,36.5 ± 1.27 kcal/mol
"c1ccc(-c2c3ccccc3c(-c3ccccc3)c3ccccc23)cc1 [9,10-diphenylanthracene] + c1ccccc1",mass density,[2]; m1 = 0.00012,873.64 ± 0.84 kg/m3
same,mass density,[2]; m1 = 0.00016,873.666 ± 0.93 kg/m3
same,mass density,[2]; m1 = 0.00022,873.731 ± 1.1 kg/m3
same,mass density,[2]; m1 = 0.00028,873.796 ± 1.1 kg/m3
same,mass density,[2]; m1 = 0.0003,873.822 ± 1.3 kg/m3
same,refractive index,[3]; m1 = 0.00012,1.49761 ± 0.00031
same,refractive index,[3]; m1 = 0.00016,1.49763 ± 0.00031
same,refractive index,[3]; m1 = 0.00022,1.49768 ± 0.00031
same,refractive index,[3]; m1 = 0.00028,1.49773 ± 0.00031
same,refractive index,[3]; m1 = 0.0003,1.49776 ± 0.00031
c1ccc(-c2c3ccccc3cc3ccccc23)cc1 [9-phenylanthracene],molar enthalpy,[1]; Crystal,30 ± 0.765 kcal/mol
c1ccc(-c2c3ccccc3cc3ccccc23)cc1 [9-phenylanthracene] + c1ccccc1,mass density,[2]; m1 = 0.00011,873.687 ± 0.71 kg/m3
same,mass density,[2]; m1 = 0.00032,873.837 ± 0.75 kg/m3
same,mass density,[2]; m1 = 0.00038,873.891 ± 0.91 kg/m3
same,mass density,[2]; m1 = 0.0008,874.047 ± 0.39 kg/m3
same,refractive index,[3]; m1 = 0.00011,1.49764 ± 0.00031
same,refractive index,[3]; m1 = 0.00032,1.49776 ± 0.00031
same,refractive index,[3]; m1 = 0.00038,1.4978 ± 0.00031
same,refractive index,[3]; m1 = 0.0008,1.49794 ± 0.00031
"C(=C\c1ccccc1)/c1ccccc1 [(E)-1,2-diphenylethene]",molar enthalpy,[1]; Crystal,24.6 ± 0.669 kcal/mol
c1ccc2cc3c(ccc4ccccc43)cc2c1 [benz[a]anthracene],molar enthalpy,[1]; Crystal,27.8 ± 0.741 kcal/mol
c1ccccc1 [benzene] + C(#Cc1ccccc1)c1ccccc1,mass density,[2]; m2 = 0,873.285 ± 0.28 kg/m3
same,refractive index,[3]; m2 = 0,1.49734 ± 0.00031
c1ccccc1 [benzene] + c1ccc(-c2c3ccccc3c(-c3ccccc3)c3ccccc23)cc1,mass density,[2]; m2 = 0,873.534 ± 0.89 kg/m3
same,refractive index,[3]; m2 = 0,1.49752 ± 0.00031
c1ccccc1 [benzene] + c1ccc(-c2c3ccccc3cc3ccccc23)cc1,mass density,[2]; m2 = 0,873.612 ± 0.69 kg/m3
same,refractive index,[3]; m2 = 0,1.49758 ± 0.00031
c1ccccc1 [benzene] + c1ccc(-c2c(-c3ccccc3)c(-c3ccccc3)c3ccccc3c2-c2ccccc2)cc1,mass density,[2]; m2 = 0,873.277 ± 1.3 kg/m3
same,refractive index,[3]; m2 = 0,1.49731 ± 0.00031
c1ccccc1 [benzene] + c1ccc(-c2cccc(-c3ccccc3)c2)cc1,mass density,[2]; m2 = 0,873.483 ± 0.54 kg/m3
same,refractive index,[3]; m2 = 0,1.49772 ± 0.00031
c1ccccc1 [benzene] + c1ccc(-c2cccc(-c3ccccc3)c2-c2ccccc2)cc1,mass density,[2]; m2 = 0,873.584 ± 0.76 kg/m3
same,refractive index,[3]; m2 = 0,1.49778 ± 0.00031
"c1ccc2c(c1)ccc1cc3c(ccc4ccccc43)cc12 [dibenz[a,h]anthracene]",molar enthalpy,[1]; Crystal,35.4 ± 1.12 kcal/mol
c1ccc2c(c1)-c1cccc3cccc-2c13 [fluoranthene],molar enthalpy,[1]; Crystal,24.1 ± 0.669 kcal/mol
c1ccc(-c2c(-c3ccccc3)c(-c3ccccc3)c(-c3ccccc3)c(-c3ccccc3)c2-c2ccccc2)cc1 [hexaphenylbenzene],molar enthalpy,[1]; Crystal,46.8 ± 1.41 kcal/mol
c1ccc(-c2cccc(-c3ccccc3)c2)cc1 [m-terphenyl],molar enthalpy,[1]; Crystal,27.6 ± 0.621 kcal/mol
c1ccc(-c2cccc(-c3ccccc3)c2)cc1 [m-terphenyl] + c1ccccc1,mass density,[2]; m1 = 0.00482,876.044 ± 0.54 kg/m3
same,mass density,[2]; m1 = 0.00941,878.445 ± 0.53 kg/m3
same,mass density,[2]; m1 = 0.0142,880.914 ± 0.52 kg/m3
same,mass density,[2]; m1 = 0.0215,884.612 ± 0.52 kg/m3
same,refractive index,[3]; m1 = 0.00482,1.49966 ± 0.00031
same,refractive index,[3]; m1 = 0.00941,1.50149 ± 0.00031
same,refractive index,[3]; m1 = 0.0142,1.50336 ± 0.00031
same,refractive index,[3]; m1 = 0.0215,1.50621 ± 0.00031
c1ccc(-c2ccc(-c3ccccc3)cc2)cc1 [p-terphenyl],molar enthalpy,[1]; Crystal,29 ± 1 kcal/mol
c1cc2ccc3cccc4ccc(c1)c2c34 [pyrene],molar enthalpy,[1]; Crystal,25.2 ± 0.789 kcal/mol
